Laboratory results taken from patent US4340595A, “Aminopropanol derivatives of 6-hydroxy-2,3,4,5-tetrahydro-1H-1-benzazepin-2-one and pharmaceutical formulations containing the said compounds” (BASF Aktiengesellschaft, priority 1978, dated 1982).
Structures can show the parent of a compound that is named as a salt. Where two headings read alike, the source gives them in different places.

How the values were obtained:
[1] = test system: isoproterenol-induced tachycardia; experiment: β-sympatholytic action in cats: inhibition of isoproterenol-induced tachycardia; type: in vivo, cat (male and female, mongrels); conditions: for % inhibition of isoproterenol-induced tachycardia, intraduodenal administration / % inhibition of isoproterenol-induced tachycardia, intravenous administration / ED (50-60%) / factor by which the dose required for 50-60% inhibition is lower than the corresponding dose of propranolol, intraduodenal / factor by which the dose required is lowered compared with propranolol, intravenous: cats; for % inhibition of isoproterenol-induced tachycardia, intraduodenal administration: at the mg/kg dose of the same line (E3); for % inhibition of isoproterenol-induced tachycardia, intravenous administration: at the mg/kg dose of the same line (E1); for ED (50-60%): Felis catus, hexobarbital narcosis; for factor by which the dose required for 50-60% inhibition is lower than the corresponding dose of propranolol, intraduodenal: enteral (intraduodenal) administration; for factor by which the dose required for 50-60% inhibition is lower than the corresponding dose of propranolol, intraduodenal / factor by which the dose required is lowered compared with propranolol, intravenous: vs propranolol; for factor by which the dose required is lowered compared with propranolol, intravenous: intravenous administration
Method: (§1) The β-sympatholytic action was tested on cats and dogs. The comparative compound used was the conventional β-sympatholytic agent propranolol. The isoproterenol-induced tachycardia model was used for the test.
Isoproterenol (1 μg/kg, administered intravenously) produces increases in heart rate averaging 61±2.4 beats/min. in cats (male and female, mongrels, weighing 1.7 to 4.0 kg) narcotized with hexobarbital (200 mg/kg administered intramuscularly). β-Sympatholytic agents inhibit this tachycardia. Isoproterenol was injected before, and 10 minutes after, the intravenous administration, or 30 minutes after the intraduodenal administration, of the test substances. The doses which inhibit the isoproterenol-induced tachycardia by 50-60% were determined.

[2] = test system: isoproterenol-induced tachycardia; experiment: β-sympatholytic action in conscious dogs: inhibition of isoproterenol-induced tachycardia; type: in vivo, dog; conditions: for ED50: Canis lupus familiaris, 10 min, read-out: ED 50% (dose which inhibits the isoproterenol-induced tachycardia by 50%)
Method: as §1
Isoproterenol was administered before and 10 minutes after the intravenous administration of the test substances.

[3] = acute toxicity, intraperitoneal administration to mice; parameters: species or system mouse (NMRI, female); conditions: mouse, in vivo, ip, Probit analysis
[4] = 10 min, intravenous, isoproterenol 1 μg/kg i.v. 10 minutes after test substance, read-out: dose inhibiting isoproterenol-induced tachycardia by 50-60%, intravenous administration
[5] = 0.5 h, intraduodenal, isoproterenol 1 μg/kg i.v. 30 minutes after test substance, read-out: dose inhibiting isoproterenol-induced tachycardia by 50-60%, intraduodenal administration

Structure (SMILES)	% inhibition of isoproterenol-induced tachycardia, intraduodenal administration ([1]; intraduodenal)	% inhibition of isoproterenol-induced tachycardia, intravenous administration ([1]; intravenous)	ED50 ([2]; iv)	ED (50-60%) [1, 4]	ED (50-60%) [1, 5]	factor by which the dose required for 50-60% inhibition is lower than the corresponding dose of propranolol, intraduodenal [1]	factor by which the dose required is lowered compared with propranolol, intravenous [1]	ED50 ([2]; conscious dogs, intravenous, isoproterenol 1 μg/kg i.v.)	times as active as propranolol (ED 50%) ([2]; conscious dogs, intravenous, vs propranolol)	LD50 at 24 h [3]	increase in heart rate produced by isoproterenol ([1]; cats narcotized with hexobarbital, 1 μg/kg intravenously)	increase in heart rate caused by isoproterenol ([2]; conscious dogs, 1 μg/kg intravenously)
CC(C)NCC(O)COc1cccc2ccccc12 (centres unmarked) [Propranolol, reference compound]	57%	52%	0.1 mg/kg									
CC(C)(C)NCC(O)COc1cccc2c1CCCC(=O)N2 (centres unmarked) [Example 2, 6-(2-hydroxy-3-tert.-butylaminopropoxy)-2,3,4,5-tetrahydro-1H-1-benzazepin-2-one hydrochloride]	52%	57%		0.0215 mg/kg	0.215 mg/kg	4.7	4.7	0.0043 mg/kg	24 times	237 mg/kg		
CC(C)NCC(O)COc1cccc2c1CCCC(=O)N2 (centres unmarked) [Example 1, 6-(2-hydroxy-3-isopropylaminopropoxy)-2,3,4,5-tetrahydro-1H-1-benzazepin-2-one]	56%	59%		0.215 mg/kg	0.464 mg/kg	2	2					
CC(C)NCC(O)c1ccc(O)c(O)c1 (centres unmarked) [Isoproterenol, reference compound]											61±2.4 beats/min.	about 100 beats/min.
